Test system: DYT1 knockin (Tor1a^delGAG/+) murine embryonic fibroblasts (MEFs)
Assay: Untargeted LC/MS/MS proteomics of EVs from DYT1 MEFs exposed 24 hours to drug, compared with untreated DYT1 (Het) MEFs
Type: cell-based, mouse
Procedure: Methods for isolation and purification of exosomes and extracellular vesicles (EV) were extensively reviewed. Experiments were performed to arrive at a robust and reproducible protocol. The protocol used herein is that set forth in Théry et al, 2006, which is incorporated by reference for it teaching of this protocol. This protocol involves depleting serum-derived EVs from cell culture media by overnight ultracentrifugation and exchanging media for 1% FBS EV-depleted media. Media is then collected from cells following a 24-hour conditioning period and EVs are isolated by 18-hour ultracentrifugation at 100,000 g (FIG. 1A).
EVs were isolated from media of cultured murine embryonic fibroblasts (MEFs) prepared in-house according to protocols described by Xu 2005 from DYT1 knockin mice (Tor1a^delGAG/+) (Goodchild R E, et al. (2005) Neuron. 48:923-932) and littermate wild-type (WT) controls. The cultured MEFs from the DYT1 mice were exposed for 24 hours to Ritonavir (RTV) while the MEFs from WT mice were exposed to vehicle, ISRIB, or Salubrinal (SAL). The EVs isolated from these WT cells and DYT1 were characterized by untargeted proteomics and RNA-seq to identify differentially expressed proteins and RNAs as candidate biomarkers. Experimenter and Proteomics core staff were blinded to genotype of cell cultures throughout preparation and analysis phases.
Samples were first normalized to 20 μg and spiked with undigested casein at a total of 40 fmol/μg, 80 fmol/μg, or 160 fmol/μg, then reduced with 10 mM dithiolthreitol for 30 minute at 80° C. and alkylated with 20 mM iodoacetamide for 30 minutes at room temperature. Next, the samples were supplemented with a final concentration of 1.2% phosphoric acid and 741 μL of S-Trap (Protifi) binding buffer (90% MeOH/100 mM […]). Proteins were trapped on the S-Trap, digested using 20 ng/μL sequencing grade trypsin (Promega) for 1 hour at 47° C., and eluted using 50 mM TEAB, followed by 0.2% FA, and lastly using 50% CAN/0.2% FA. All samples were then lyophilized to dryness and resuspended in 40 μL 1% TFA/2% acetonitrile containing 12.5 fmol/μL yeast alcohol dehydrogenase (ADH_YEAST). A QC Pool was created from 3 uL of each sample. All QC Pools were run periodically throughout the acquisition period.
Quantitative LC/MS/MS was performed on 2 μL of each sample, using a nanoAcquity UPLC system (Waters Corp) coupled to a Thermo Orbitrap Fusion Lumos high resolution accurate mass tandem mass spectrometer (Thermo) via a nanoelectrospray ionization source. Briefly, the sample was first trapped on a Symmetry C18 20 mm×180 μm trapping column (5 μL/min at 99.9/0.1 v/v water/acetonitrile), after which the analytical separation was performed using a 1.8 μm Acquity HSS T3 C18 75 μm×250 mm column (Waters Corp.) with a 90 minute linear gradient of 5% to 30% acetonitrile with 0.1% formic acid at a flow rate of 400 nanoliters/minute (nL/min) with a column temperature of 55° C. Data collection on the Fusion Lumos mass spectrometer was performed in a data-dependent acquisition (DDA) mode of acquisition with a r=120,000 (@ m/z 200) full MS scan from m/z 375-1500 with a target AGC value of 2e5 ions. MS/MS scans were acquired at Rapid scan rate (Ion Trap) with an AGC target of 5e3 ions and a max injection time of 100 ms. The total cycle time for MS and MS/MS scans was 2 seconds. A 20 second dynamic exclusion was employed to increase depth of coverage. The total analysis cycle time for each sample injection was approximately 2 hours.

Compound: CC(C)c1nc(CN(C)C(=O)N[C@H](C(=O)N[C@@H](Cc2ccccc2)C[C@H](O)[C@H](Cc2ccccc2)NC(=O)OCc2cncs2)C(C)C)cs1 [RTV, Ritonavir]
- Abs Z Score Sum (Geno + RTV) (EV protein Sptan1 (P16546)): 6.02
- Abs Z Score Sum (Geno + RTV) (EV protein Spthn1 Q62261): 6.23
- Abs Z Score Sum (Geno + RTV) (EV protein Srsf7 Q8BL97): 5.72
- Abs Z Score Sum (Geno + RTV) (EV protein Ssb (P32067)): 5.45
- RTV Direction Opposite dE? (EV protein Ssb (P32067)): yes
- Abs Z Score Sum (Geno + RTV) (EV protein Ssbp1 (Q9CYR0)): 12.21
- RTV Direction Opposite dE? (EV protein Ssbp1 (Q9CYR0)): yes
- RTV Direction Opposite dE? (EV protein Svep1 (A2A0A0)): yes
- Abs Z Score Sum (Geno + RTV) (EV protein Tars (Q9D0R2)): 9.50
- Abs Z Score Sum (Geno + RTV) (EV protein Tra2b (P62996)): 6.63
- RTV Direction Opposite dE? (EV protein Tra2b (P62996)): yes
- Abs Z Score Sum (Geno + RTV) (EV protein Ube2n P61089): 8.62
- Abs Z Score Sum (Geno + RTV) (EV protein Upf1 (Q9..)): 9.02
- Abs Z Score Sum (Geno + RTV) (EV protein Usol Q9Z1Z0): 12.14
- Abs Z Score Sum (Geno + RTV) (EV protein Vapa (Q9WV55)): 8.93
- RTV Direction Opposite dE? (EV protein Vapa (Q9WV55)): yes
- Direction Opposite dE? (EV protein: 26S proteasome non-ATPase regulatory subunit 8): yes
- Direction Opposite dE? (EV protein: 60S [?] subunit biogenesis protein [?] homolog): yes
- Direction Opposite dE? (EV protein: 60S ribosomal protein [?]): yes
- Direction Opposite dE? (EV protein: 116 kDa [?] small nuclear ribonucleoprotein component): yes
- Direction Opposite dE? (EV protein: AP-3 complex subunit [?]): yes
- Direction Opposite dE? (EV protein: ATP-dependent RNA helicase [?]): yes
- Direction Opposite dE? (EV protein: Acyl-protein thioesterase 2): yes
- Direction Opposite dE? (EV protein: Alpha-crystallin B chain): yes
- Direction Opposite dE? (EV protein: Anaphase-promoting complex subunit 2): yes
- Direction Opposite dE? (EV protein: Anaphase-promoting complex subunit 4): yes
- Direction Opposite dE? (EV protein: Anaphase-promoting complex subunit 5): yes
- Direction Opposite dE? (EV protein: Calponin-3): yes
- Direction Opposite dE? (EV protein: Cell [?] cycle protein [?] homolog): yes
- Direction Opposite dE? (EV protein: Cell division cycle protein 27 homolog): yes
- Direction Opposite dE? (EV protein: Choline transporter-like protein 1): yes
- Direction Opposite dE? (EV protein: Coiled-coil domain-containing protein 22): yes
- Direction Opposite dE? (EV protein: Complement C1q [?] -related protein 3): yes
- Direction Opposite dE? (EV protein: Cullin-2): yes
- Direction Opposite dE? (EV protein: Cullin-5): yes
- Direction Opposite dE? (EV protein: Cullin-7): yes
- Direction Opposite dE? (EV protein: Cytosolic purine [?] -nucleotidase): yes
- Direction Opposite dE? (EV protein: DNA [?] (r264)): yes
- Direction Opposite dE? (EV protein: DNA [?] licensing factor MCM4): yes
- Direction Opposite dE? (EV protein: DNA ligase 1): yes
- Direction Opposite dE? (EV protein: DNA replication licensing factor MCM5): yes
- Direction Opposite dE? (EV protein: DNA replication licensing factor [?]): yes
- Direction Opposite dE? (EV protein: DNA-directed RNA polymerase II subunit RPB1): yes
- Direction Opposite dE? (EV protein: DNA-directed RNA polymerase II subunit RPB2): yes
- Direction Opposite dE? (EV protein: DNA-directed RNA polymerase II subunit RPB3): yes
- Direction Opposite dE? (EV protein: DNA-directed RNA polymerase [?] subunit RPA2): yes
- Direction Opposite dE? (EV protein: DNA-directed RNA polymerases I, II, and III subunit RPABC3): yes
- Direction Opposite dE? (EV protein: DNA-directed RNA polymerases I, II, and III subunit [?]): yes
- Direction Opposite dE? (EV protein: Developmentally-regulated GTP-binding protein 2): yes
- Direction Opposite dE? (EV protein: Double-strand-break repair protein rad21 homolog): yes
- Direction Opposite dE? (EV protein: Dual specificity mitogen-activated protein kinase kinase 4): yes
- Direction Opposite dE? (EV protein: Dynactin subunit 4): yes
- Direction Opposite dE? (EV protein: E3 ubiquitin-protein ligase [?]): yes
- Direction Opposite dE? (EV protein: Elongin-B): yes
- Direction Opposite dE? (EV protein: Extended synaptotagmin-1): yes
- Direction Opposite dE? (EV protein: Gamma-tubulin complex component 2): yes
- Direction Opposite dE? (EV protein: General vesicular transport factor p115): yes
- Direction Opposite dE? (EV protein: Glucose-6-phosphate 1-dehydrogenase [?]): yes
- Direction Opposite dE? (EV protein: Glutathione S-transferase omega-1): yes
- Direction Opposite dE? (EV protein: Glycosylated lysosomal membrane protein): yes
- Direction Opposite dE? (EV protein: Golgi reassembly-stacking protein 2): yes
- Direction Opposite dE? (EV protein: Heterogeneous nuclear ribonucleoprotein H): yes
- Direction Opposite dE? (EV protein: Histone-arginine methyltransterase CARM1): yes
- Direction Opposite dE? (EV protein: Immunity-related GTPase family M protein 1): yes
- Direction Opposite dE? (EV protein: Importin-7): yes
- Direction Opposite dE? (EV protein: Inositol monophosphate 1): yes
- Direction Opposite dE? (EV protein: Insulin-like growth factor 1 receptor): yes
- Direction Opposite dE? (EV protein: Integrin beta- 3): yes
- Direction Opposite dE? (EV protein: Lupus [?] protein homolog): yes
- Direction Opposite dE? (EV protein: Lysine-specific histone demethylase [?]): yes
- Direction Opposite dE? (EV protein: Mediator [?] RNA polymerase II transcription subunit 23): yes
- Direction Opposite dE? (EV protein: Metastasis-associated protein [?] (r222)): yes
- Direction Opposite dE? (EV protein: Metastasis-associated protein [?] (r261)): yes
- Direction Opposite dE? (EV protein: Microtubule-associated protein [?]): yes
- Direction Opposite dE? (EV protein: N-alpha-acetyltransferase 10): yes
- Direction Opposite dE? (EV protein: Nerine arginine-rich splicing factor [?]): yes
- Direction Opposite dE? (EV protein: Nuclear [?] complex protein [?]): yes
- Direction Opposite dE? (EV protein: Nuclear cap-binding protein subunit 1): yes
- Direction Opposite dE? (EV protein: Nuclear receptor-binding protein): yes
- Direction Opposite dE? (EV protein: NudC domain-containing protein 1): yes
- Direction Opposite dE? (EV protein: Phospholipase D3): yes
- Direction Opposite dE? (EV protein: Phosphoribosyl pyrophosphate synthase-associated protein 1): yes
- Direction Opposite dE? (EV protein: Probable ubiquitin carboxyl-terminal hydrolase [?]): yes
- Direction Opposite dE? (EV protein: Proenkephalin-A): yes
- Direction Opposite dE? (EV protein: Protein O-GlcNAcase): yes
- Direction Opposite dE? (EV protein: Protein RMD5 homolog A): yes
- Direction Opposite dE? (EV protein: Protein [?] 14 homolog): yes
- Direction Opposite dE? (EV protein: Protein [?] (r160)): yes
- Direction Opposite dE? (EV protein: Protein disulfide-isomerase A4): yes
- Direction Opposite dE? (EV protein: RNA-binding protein [?]): yes
- Direction Opposite dE? (EV protein: Ran-binding protein 10): yes
- Direction Opposite dE? (EV protein: Ras-related protein Rab-6A): yes
- Direction Opposite dE? (EV protein: Ribosome biogenesis protein BOP1): yes
- Direction Opposite dE? (EV protein: Ribosome production factor 2 homolog): yes
- Direction Opposite dE? (EV protein: Serine threonine-protein phosphatase 2A 56 kDa regulatory subunit gamma isoform): yes
- Direction Opposite dE? (EV protein: Sorting nexin-1): yes
- Direction Opposite dE? (EV protein: Splicing factor 3B subunit 4): yes
- Direction Opposite dE? (EV protein: Structural maintenance of [?] protein 2): yes
- Direction Opposite dE? (EV protein: Transformer-2 protein homolog beta): yes
- Direction Opposite dE? (EV protein: Trascriptional activator protein [?] -alpha): yes
- Direction Opposite dE? (EV protein: Ubiquitin-conjugating enzyme [?]): yes
- Direction Opposite dE? (EV protein: WD repeat-containing protein [?]): yes
- Direction Opposite dE? (EV protein: [?] (r162)): yes
- Direction Opposite dE? (EV protein: [?] -1 (r154)): yes
- Direction Opposite dE? (EV protein: [?] -1 (r232)): yes
- Direction Opposite dE? (EV protein: [?] -associated membrane protein-associated protein A): yes
- Direction Opposite dE? (EV protein: [?] -promoting complex subunit 1): yes
- Direction Opposite dE? (EV protein: [?] -related [?] -associated actin-dependent regulator [?] chromatin subfamily A member 5): yes
- Direction Opposite dE? (EV protein: [?] complex subunit 2): yes
- Direction Opposite dE? (EV protein: [?] kinase): yes
- Direction Opposite dE? (EV protein: [?] membrane protein 2): yes
- Direction Opposite dE? (EV protein: [?] myosin- [?]): yes
- Direction Opposite dE? (EV protein: [?] repeat-containing protein 5A): yes
- Direction Opposite dE? (EV protein: [?] ubiquitin-protein ligase [?]): yes
- Direction Opposite dE? (EV protein: [?] von Willebrand factor type A, [?] and pentraxin domain-containing protein 1): yes
- Direction Opposite dE? (EV protein: p21-activated protein kinase-interacting protein 1): yes
